Test results from patent US6627793B2, “Low temperature-inducible wheat WCS120 gene promoter” (Université du Québec A Montréal, priority 1998, dated 2003).

Experiments:
[1] = test system: PKC-like activity in CA nuclear extracts; assay: PKC activity in nuclear extracts with the PKC-specific substrate peptide MARCKS; assay type: biochemical, wheat
Procedure: FIGS. 5. a) to c) Analysis of endogenous kinases in nuclear extracts from non-acclimated (NA) and cold-acclimated (CA) wheat plants. a) In vitro phosphorylation of nuclear proteins. Equal amounts of nuclear proteins (10 μg) were incubated with [γ-^32P]ATP and separated by SDS-PAGE. The gel was dried and exposed to a X-ray film. b) Immunodetection of a PKCg homolog in nuclear and soluble extracts from non-acclimated (NA) and cold-acclimated (CA) plants. Equal amounts of proteins (10 μg) were separated by SDS-PAGE, blotted onto nitrocellulose membranes and probed with the anti-PKCg antibody. CA2 and CA7 indicate soluble extracts from 2 and 7 days cold-acclimated plants. c) PKC activity was measured in the nuclear extracts with the peptide MARCKS as the PKC-specific substrate and containing the indicated chemicals. […] Aliquotes of each reaction were separated by SDS-PAGE and visualized by autoradiography. PS, phosphatydylserine; DAG, diacylglycerol.
To determine the qualitative changes in the phosphorylation pattern following cold treatment, the nuclear extracts from both NA and CA plants (10 μg protein) were incubated for 5 to 40 min at 30° C. in binding buffer (Harter, K., supra) containing 1 mM MgCl2, 50 μCi [γ-^32P]ATP and 1 mM CaCl2. At specified intervals, reactions were stopped by adding one volume of 2× SDS-sample buffer and the proteins were separated by SDS-PAGE. Gels were dried, exposed to X-ray film and the signal intensity of individual bands was determined by quantitative densitometry. To accurately quantify the Ca^2+-dependent and Ca^2+-independent nuclear kinase activities, the incorporation of ^32P on histone III-S, casein or the PKC-specific substrate peptide MARCKS (Biomol; Blackshear, P. J. (1993) J. Biol. Chem. 268: 1501-1504) was determined as described elsewhere (Kitano, T., et al. (1986) Methods Enzymol. 124: 349-352). Histone III-S and casein are suitable substrates for phosphorylation assays, particularly when dealing with a crude mixture of uncharacterized protein kinases. […]

[2] = test system: WCS120 family of proteins; assay: In vivo okadaic acid treatment of wheat shoots at low temperature, western blot densitometry of WCS120 proteins; design: species or system wheat (Triticum aestivum L. cv Fredrick); settings: 4° C.
Procedure: FIGS. 6. a) to c) Effect of in vivo okadaic acid treatment on the accumulation of the cold-inducible WCS120 family of proteins. Wheat seedlings were incubated at low temperature without or with different concentrations of okadaic acid (OA), and soluble proteins were extracted and separated by SDS-PAGE. a) Immunodetection of the WCS120 protein family in the soluble extracts. Following the treatment, the proteins were analyzed by western blot using the anti-WCS120 antibody. b) SDS-PAGE gel stained with Coomassie blue showing equal protein loading. c) Densitometric quantification of the individual protein bands of 50, 66 and 200 kDa of the immunoblot shown in a. The 50 kDa protein is encoded by Wcs120 gene. Values represent averages and standard deviations of the integrated intensity of the pixels for each protein band, excluding the background, from at least three independent experiments.
Wheat shoots were cut and immediately incubated in water or in the presence of the phosphatase inhibitor okadaic acid (OA) at 10, 100 or 1000 nM. The plants were left at room temperature for 4 hours to allow translocation of the inhibitor, then transferred to 4° C. for 24 hours, and the total soluble proteins were extracted as described (Limin, A. E., supra). […] The signal intensity for individual protein bands on the X-ray films was quantified with a Personal Densitometer SI (Molecular Dynamics) using the ImageQuaNT version 4.2 software. […]
To determine the role of protein phosphatases on the expression of Wcs120 gene, wheat seedlings were incubated at 4° C. in the presence of okadaic acid (a potent and specific inhibitor of protein phosphatases PP1 and PP2A) (Smith, R. D., et al. (1996) Annu. Rev. Plant. Physiol. Plant. Mol. Biol. 47:101-125). Soluble proteins were extracted and the accumulation of the WCS120 family of proteins was analyzed by quantitative densitometry of western blots. […]

[3] = 1 μM okadaic acid, densitometric analysis

Calphostin C was tested, and the “inhibition of MARCKS phosphorylation (32P incorporation, scintillation counting)” value ([1]; 0.5 mM Calphostin C) was “complete inhibition” and the “inhibition of MARCKS phosphorylation” value ([1]; Calphostin C at 0.1 µM) was “did not significantly inhibit”.
With `C=C1[C@@H](O)[C@@H]2O[C@]3(CC[C@H](/C=C/[C@@H](C)[C@@H]4CC(C)=C[C@@]5(O[C@H](C[C@@](C)(O)C(=O)O)CC[C@H]5O)O4)O3)CC[C@H]2O[C@@H]1[C@@H](O)C[C@H](C)[C@H]1O[C@@]2(CCCCO2)CC[C@H]1C` [okadaic acid] the “increase of the 50 and 66 kDa proteins with respect to plants exposed to low temperature without inhibitor” value [2, 3] was 2.2 fold, the “increase of the 200 kDa protein with respect to plants exposed to low temperature without inhibitor” value [2, 3] was 9 fold and the “accumulation of the 50, 66 and 200 kDa WCS120 proteins at low temperature” value ([2]; several concentrations of OA (10, 100 or 1000 nM)) was “significantly stimulated”.
With `O=C(O)CN(CCOCCOCCN(CC(=O)O)CC(=O)O)CC(=O)O` [EGTA] the “inhibition of the phosphorylation of MARCKS” value ([1]; 0.5 mM EGTA) was “only partial inhibition”.
